# Laboratory results reported in patent publication US10167262B2, “Herbicidal substituted 3-arylpyrazoles” (FMC CORPORATION, priority 2014, dated 2019).
# Legend:
# Format in all cases: in vivo
# [1] = test system: barnyardgrass (Echinochloa crus-galli); assay: Test B flooded paddy test, plant response rating 0-100; conditions: Flood, 250 g ai/ha; scale 0 to 100 (0 no effect, 100 complete control); 13 to 15 days
# Procedure, shortened: (§1)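 Under a constant 3 cm flood, test compounds went directly into the paddy water. Following 13 to 15 days of greenhouse growth, treated species and controls were compared by eye.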
# [2] = test system: sedge, umbrella (small-flower umbrella sedge, Cyperus difformis); assay: as above; conditions: Flood, 250 g ai/ha; scale 0 to 100 (0 no effect, 100 complete control); 13 to 15 days
# Procedure, shortened: as §1
# rice (Oryza sativa) = assay: as above; conditions: Flood, 250 g ai/ha; scale 0 to 100 (0 no effect, 100 complete control); 13 to 15 days
# Procedure, shortened: as §1
# [3] = test system: ducksalad (Heteranthera limosa); assay: as above; conditions: Flood, 250 g ai/ha; scale 0 to 100 (0 no effect, 100 complete control); 13 to 15 days
# Procedure, shortened: as §1
# [4] = test system: pigweed (Amaranthus retroflexus); assay: Test A pre-/postemergence greenhouse herbicide test, visual injury rating 0-100; conditions: 1000 g ai/ha
# Procedure, shortened: (§2)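 Visual injury versus untreated controls, scored about 10 days after treatment on a 0 to 100 scale (0 = no effect, 100 = complete control). Applications were preemergence directed soil spray plus postemergence spray at one- to two-leaf stage, 2 to 10 cm plants.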
# [5] = test system: wheat (Triticum aestivum); assay: as above; conditions: 1000 g ai/ha
# Procedure, shortened: as §2
# [6] = test system: giant foxtail (Setaria faberii); assay: as above; conditions: 1000 g ai/ha
# Procedure, shortened: as §2
# [7] = test system: velvetleaf (Abutilon theophrasti); assay: as above; conditions: 1000 g ai/ha
# Procedure, shortened: as §2
# [8] = test system: morningglory (Ipomoea spp.); assay: as above; conditions: 1000 g ai/ha
# Procedure, shortened: as §2
# [9] = test system: barnyardgrass (Echinochloa crus-galli); assay: as above; conditions: 1000 g ai/ha
# Procedure, shortened: as §2
# [10] = test system: large (Lg) crabgrass (Digitaria sanguinalis); assay: as above; conditions: 1000 g ai/ha
# Procedure, shortened: as §2
# corn (Zea mays) = assay: as above; conditions: 1000 g ai/ha
# Procedure, shortened: as §2
SMILES,"Plant response rating, Barnyardgrass [1]","Plant response rating, Sedge, Umbrella [2]","Plant response rating, Rice (rice (Oryza sativa))","Plant response rating, Ducksalad [3]","Plant response rating (0 to 100 scale), Pigweed ([4]; Postemergence)","Plant response rating (0 to 100 scale), Pigweed ([4]; Preemergence)","Plant response rating (0 to 100 scale), Wheat ([5]; Postemergence)","Plant response rating (0 to 100 scale), Wheat ([5]; Preemergence)","Plant response rating (0 to 100 scale), Foxtail, Giant ([6]; Postemergence)","Plant response rating (0 to 100 scale), Foxtail, Giant ([6]; Preemergence)","Plant response rating (0 to 100 scale), Velvetleaf ([7]; Postemergence)","Plant response rating (0 to 100 scale), Velvetleaf ([7]; Preemergence)","Plant response rating (0 to 100 scale), Morningglory ([8]; Postemergence)","Plant response rating (0 to 100 scale), Morningglory ([8]; Preemergence)","Plant response rating (0 to 100 scale), Barnyardgrass ([9]; Postemergence)","Plant response rating (0 to 100 scale), Barnyardgrass ([9]; Preemergence)","Plant response rating (0 to 100 scale), Crabgrass, Large ([10]; Postemergence)","Plant response rating (0 to 100 scale), Crabgrass, Large ([10]; Preemergence)","Plant response rating (0 to 100 scale), Corn (corn (Zea mays); Postemergence)","Plant response rating (0 to 100 scale), Corn (corn (Zea mays); Preemergence)"
Clc1cc(Cl)cc(-c2n[nH]cc2C(=NN2CCOCC2)c2ccccc2)c1 [Compound 55],0,0,0,0,100,90,0,0,0,0,100,80,0,0,0,0,0,0,0,0
Clc1cccc(NN=C(c2ccccc2)c2c[nH]nc2-c2cc(Cl)cc(Cl)c2)c1 [Compound 56],0,0,0,0,90,100,0,0,0,0,90,90,0,0,0,0,0,0,0,0
Clc1ccc(NN=C(c2ccccc2)c2c[nH]nc2-c2cc(Cl)cc(Cl)c2)cc1 [Compound 65],0,0,0,0,90,80,0,0,0,0,90,80,30,0,0,0,0,0,0,0
N=C(c1ccccc1)c1c[nH]nc1-c1cc(F)cc(F)c1 [Compound 67],0,0,0,0,80,100,0,0,0,0,90,100,0,0,0,0,0,0,0,0
